Assay results as given in patent US20250136607A1 (REGOR PHARMACEUTICALS, INC., priority 2021, published 2025).

Target: Protein arginine deiminase 4 (PAD4) (Homo sapiens, UniProt Q9UM07)
Assay: PAD4 ammonia release assay
Format: biochemical
Settings: PAD4 ammonia release assay, BAEE substrate, 60 min at RT; read-out: Average IC50 Abs
Procedure: 1) Compound preparation: The compounds were diluted to 80× final concentrations. 2) The compounds were transferred to a 384-well assay plate by Tecan. DMSO: 1.25%. 3) Preparation of 1×Assay buffer: 100 mM HEPES, PH=8.0, 2 mM CaCl2, 50 mM NaCl, 0.1 mM TCEP, 0.6 mg/ml BSA. 4) 2× enzyme working solution (PAD4:20 nM) was prepared with assay buffer, and 10 μL of the obtained working solution were added to the 384-well assay plates. 5) The plate was centrifuged at 1000 rpm for 1 min. 6) After the centrifuge, the plate was incubated at RT for 15 min. 7) 2×BAEE substrate mix (600 μM) was prepared with assay buffer and 10 μL of the obtained substrate mix were added to each well. 8) The plate was centrifuged at 1000 rpm for 1 min and then incubated at RT for 60 min. 9) 1.5× detection mix (DTT:4 mM, OPA:3 mM, EDTA: 30 mM) was prepared, and 10 μL of the mix were added to the plate. 10) The plate was centrifuged at 1000 rpm for 1 min and then incubated at RT for 120 min. 11) The 384-well plates were placed into the Envision (PerkinElmer) and the assay data were collected.
The percent (%) inhibition at each concentration of compound was calculated based on and relative to the signal in the HPE (50 μM ref. compound) and ZPE (1.25% DMSO) wells included within each assay plate. The HPE worked as 100% inhibition, and the ZPE worked as 0% inhibition. The concentrations and % inhibition values for tested compounds were plotted and the concentration of compound required for 50% inhibition (IC50) was determined with a Four-parameter logistic dose response equation. The endpoint value (IC50) for the reference compound was evaluated in each experiment as a quality control measure. If the endpoint value is within 3-fold of the expected value, then the experiment quality is deemed as acceptable. The results are provided in Table 1 below. ≤0.1 μM=“++++”; >0.1 and ≤0.5 μM=“+++”; >0.5 and ≤5.0 μM=“++”; >5.0 μM=“+”. “−”=not available.

Chain of Protein arginine deiminase 4 (PAD4) (Q9UM07 whole entry): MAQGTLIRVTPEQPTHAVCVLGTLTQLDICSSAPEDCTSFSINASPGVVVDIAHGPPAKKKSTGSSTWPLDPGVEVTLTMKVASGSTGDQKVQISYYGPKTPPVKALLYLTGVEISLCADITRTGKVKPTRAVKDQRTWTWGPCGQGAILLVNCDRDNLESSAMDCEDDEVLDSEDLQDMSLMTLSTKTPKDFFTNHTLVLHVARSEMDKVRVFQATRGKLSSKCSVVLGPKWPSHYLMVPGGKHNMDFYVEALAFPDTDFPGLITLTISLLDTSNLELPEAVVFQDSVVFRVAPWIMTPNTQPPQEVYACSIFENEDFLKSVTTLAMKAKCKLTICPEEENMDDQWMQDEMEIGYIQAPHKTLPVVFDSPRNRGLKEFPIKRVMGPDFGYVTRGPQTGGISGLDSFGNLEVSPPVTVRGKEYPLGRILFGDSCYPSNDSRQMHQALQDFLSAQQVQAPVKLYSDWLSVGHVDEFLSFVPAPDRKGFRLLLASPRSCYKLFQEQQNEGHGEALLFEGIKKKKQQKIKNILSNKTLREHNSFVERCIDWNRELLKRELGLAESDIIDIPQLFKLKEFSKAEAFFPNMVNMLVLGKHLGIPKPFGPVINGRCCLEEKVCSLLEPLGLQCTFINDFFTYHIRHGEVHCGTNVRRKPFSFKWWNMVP

Structure (SMILES)	IC50
COc1cc(C(=O)N2CCC[C@@H](N)C2)cc2nc(-c3cc4cccc5c4n3CCC(=O)N5)n(C)c12 [Example 8, (R)-6-(5-(3-aminopiperidine-1-carbonyl)-7-methoxy-1-methyl-1H-benzo[d]imidazol-2-yl)-3,4-dihydro-[1,4]diazepino[3,2,1-hi]indol-2(1H)-one]	> 5 µM
COc1cc(C(=O)N2CCC[C@@H](N)C2)cc2nc(-c3cc4cccc5c4n3CC(=O)N5)n(C)c12 [Example 9, (R)-5-(5-(3-aminopiperidine-1-carbonyl)-7-methoxy-1-methyl-1H-benzo[d]imidazol-2-yl)-1H-pyrrolo[1,2,3-de]quinoxalin-2(3H)-one]	> 5 µM
COc1cc(C(=O)N2C[C@H]3CC[C@@H]2[C@@H]3N)cc2nc(-c3cc4cccc5c4n3CCN5CCO)n(C)c12 [Example 11, ((1R,4R,7R)-7-amino-2-azabicyclo[2.2.1]heptan-2-yl)(2-(1-(2-hydroxyethyl)-2,3-dihydro-1H-pyrrolo[1,2,3-de]quinoxalin-5-yl)-7-methoxy-1-methyl-1H-benzo[d]imidazol-5-yl)methanone]	0.5 to 5 µM
COc1cc(C(=O)N2CC[C@@H](N)C2)cc2nc(-c3cc4cccc5c4n3CCN5CCCO)n(C)c12 [Example 15, (R)-(3-aminopyrrolidin-1-yl)(2-(1-(3-hydroxypropyl)-2,3-dihydro-1H-pyrrolo[1,2,3-de]quinoxalin-5-yl)-7-methoxy-1-methyl-1H-benzo[d]imidazol-5-yl)methanone]	> 5 µM
COc1cc(C(=O)N2CCC[C@@](C)(N)C2)cc2nc(-c3cc4cccc5c4n3CCN5CCCO)n(C)c12 [Example 16, (R)-(3-amino-3-methylpiperidin-1-yl)(2-(1-(3-hydroxypropyl)-2,3-dihydro-1H-pyrrolo[1,2,3-de]quinoxalin-5-yl)-7-methoxy-1-methyl-1H-benzo[d]imidazol-5-yl)methanone]	> 5 µM
COc1cc(C(=O)N2C[C@H](N)C[C@@H](C(F)(F)F)C2)cc2nc(-c3cc4cccc5c4n3CCN5CCCO)n(C)c12 [Example 17, ((3R,5R)-3-amino-5-(trifluoromethyl)piperidin-1-yl)(2-(1-(3-hydroxypropyl)-2,3-dihydro-1H-pyrrolo[1,2,3-de]quinoxalin-5-yl)-7-methoxy-1-methyl-1H-benzo[d]imidazol-5-yl)methanone]	> 5 µM
COc1cc(C(=O)N2C[C@H](N)CC(F)(F)C2)cc2nc(-c3cc4cccc5c4n3CCN5CCCO)n(C)c12 [Example 18, (R)-(5-amino-3,3-difluoropiperidin-1-yl)(2-(1-(3-hydroxypropyl)-2,3-dihydro-1H-pyrrolo[1,2,3-de]quinoxalin-5-yl)-7-methoxy-1-methyl-1H-benzo[d]imidazol-5-yl)methanone]	0.5 to 5 µM
COc1cc(C(=O)N2CCC[C@](C)(N)C2)cc2nc(-c3cc4cccc5c4n3CCN5CCCO)n(C)c12 [Example 19, (S)-(3-amino-3-methylpiperidin-1-yl)(2-(1-(3-hydroxypropyl)-2,3-dihydro-1H-pyrrolo[1,2,3-de]quinoxalin-5-yl)-7-methoxy-1-methyl-1H-benzo[d]imidazol-5-yl)methanone]	> 5 µM
COc1cc(C(=O)N2CC[C@@H](F)[C@@H](N)C2)cc2nc(-c3cc4cccc5c4n3CCN5CCCO)n(C)c12 [Example 20, ((3S,4R)-3-amino-4-fluoropiperidin-1-yl)(2-(1-(3-hydroxypropyl)-2,3-dihydro-1H-pyrrolo[1,2,3-de]quinoxalin-5-yl)-7-methoxy-1-methyl-1H-benzo[d]imidazol-5-yl)methanone]	0.5 to 5 µM
COCCCN1CCn2c(-c3nc4cc(C(=O)N5CCC[C@@H](N)C5)cc(OC)c4n3C)cc3cccc1c32 [Example 21, (R)-(3-aminopiperidin-1-yl)(7-methoxy-2-(1-(3-methoxypropyl)-2,3-dihydro-1H-pyrrolo[1,2,3-de]quinoxalin-5-yl)-1-methyl-1H-benzo[d]imidazol-5-yl)methanone]	0.5 to 5 µM
COc1cc(C(=O)N2C[C@H](N)C[C@@H](F)C2)cc2nc(-c3cc4cccc5c4n3CCN5CCOCCO)n(C)c12 [Example 22, ((3R,5R)-3-amino-5-fluoropiperidin-1-yl)(2-(1-(2-(2-hydroxyethoxy)ethyl)-2,3-dihydro-1H-pyrrolo[1,2,3-de]quinoxalin-5-yl)-7-methoxy-1-methyl-1H-benzo[d]imidazol-5-yl)methanone]	0.1 to 0.5 µM
COc1cc(C(=O)N2CCC[C@@H](N)C2)cc2nc(-c3cc4cccc5c4n3CCN5Cc3ccccc3)n(C)c12 [Example 24, (R)-(3-aminopiperidin-1-yl)(2-(1-benzyl-2,3-dihydro-1H-pyrrolo[1,2,3-de]quinoxalin-5-yl)-7-methoxy-1-methyl-1H-benzo[d]imidazol-5-yl)methanone]	> 5 µM
COc1cc(C(=O)N2CCC[C@@H](N)C2)cc2nc(-c3cc4cccc5c4n3CCN5C)n(C)c12 [Example 25]	> 5 µM
COc1cc(C(=O)N2C[C@H](N)C[C@@H](F)C2)cc2nc(-c3cc4cccc5c4n3CCN5Cc3cnn(C)c3)n(C)c12 [Example 26, ((3R,5R)-3-amino-5-fluoropiperidin-1-yl)(7-methoxy-1-methyl-2-(1-((1-methyl-1H-pyrazol-4-yl)methyl)-2,3-dihydro-1H-pyrrolo[1,2,3-de]quinoxalin-5-yl)-1H-benzo[d]imidazol-5-yl)methanone]	0.5 to 5 µM
COc1cc(C(=O)N2CCC[C@@H](N)C2)cc2nc(-c3cc4cccc5c4n3CCN5CCCOC(=O)NC3CC3)n(C)c12 [Example 27, (R)-3-(5-(5-(3-aminopiperidine-1-carbonyl)-7-methoxy-1-methyl-1H-benzo[d]imidazol-2-yl)-2,3-dihydro-1H-pyrrolo[1,2,3-de]quinoxalin-1-yl)propyl cyclopropylcarbamate]	0.5 to 5 µM
COc1cc(C(=O)N2C[C@H](N)C[C@@H](F)C2)cc2nc(-c3cc4cccc5c4n3CCN5C(=O)CO)n(C)c12 [Example 28, 1-(5-(5-((3R,5R)-3-amino-5-fluoropiperidine-1-carbonyl)-7-methoxy-1-methyl-1H-benzo[d]imidazol-2-yl)-2,3-dihydro-1H-pyrrolo[1,2,3-de]quinoxalin-1-yl)-2-hydroxyethan-1-one]	0.5 to 5 µM
COc1cc(C(=O)N2C[C@H](N)C[C@@H](F)C2)cc2nc(-c3cc4cccc5c4n3CCN5C(=O)COC(C)=O)n(C)c12 [Example 29, 2-(5-(5-((3R,5R)-3-amino-5-fluoropiperidine-1-carbonyl)-7-methoxy-1-methyl-1H-benzo[d]imidazol-2-yl)-2,3-dihydro-1H-pyrrolo[1,2,3-de]quinoxalin-1-yl)-2-oxoethyl acetate)]	0.5 to 5 µM
COc1cc(C(=O)N2C[C@H](N)C[C@@H](F)C2)cc2nc(-c3cc4cccc5c4n3CCN5C(=O)CC#N)n(C)c12 [Example 30, 3-(5-(5-((3R,5R)-3-amino-5-fluoropiperidine-1-carbonyl)-7-methoxy-1-methyl-1H-benzo[d]imidazol-2-yl)-2,3-dihydro-1H-pyrrolo[1,2,3-de]quinoxalin-1-yl)-3-oxopropanenitrile]	> 5 µM
COc1cc(C(=O)N2CCC[C@@H](N)C2)cc2nc(-c3cc4cccc5c4n3CCN5C(=O)c3ccccc3)n(C)c12 [Example 31, (R)-(3-aminopiperidin-1-yl)(2-(1-benzoyl-2,3-dihydro-1H-pyrrolo[1,2,3-de]quinoxalin-5-yl)-7-methoxy-1-methyl-1H-benzo[d]imidazol-5-yl)methanone]	> 5 µM
COc1cc(C(=O)N2CCC[C@@H](N)C2)cc2nc(-c3cc4cccc5c4n3CCN5C3CC(N)C3)n(C)c12 (stereo partly drawn) [Example 32, (R)-(2-(1-(3-aminocyclobutyl)-2,3-dihydro-1H-pyrrolo[1,2,3-de]quinoxalin-5-yl)-7-methoxy-1-methyl-1H-benzo[d]imidazol-5-yl)(3-aminopiperidin-1-yl)methanone]	0.5 to 5 µM
COc1cc(C(=O)N2CCC[C@@H](N)C2)cc2nc(-c3cc4cccc5c4n3CCN5C3CC(NC(C)=O)C3)n(C)c12 (stereo partly drawn) [Example 33, (R)—N-(3-(5-(5-(3-aminopiperidine-1-carbonyl)-7-methoxy-1-methyl-1H-benzo[d]imidazol-2-yl)-2,3-dihydro-1H-pyrrolo[1,2,3-de]quinoxalin-1-yl)cyclobutyl)acetamide]	0.5 to 5 µM
COc1cc(C(=O)N2C[C@H](N)C[C@@H](F)C2)cc2nc(-c3cc4cccc5c4n3CCN5CCCO)n(Cc3ccc(F)cc3)c12 [Example 36, ((3R,5R)-3-amino-5-fluoropiperidin-1-yl)(1-(4-fluorobenzyl)-2-(1-(3-hydroxypropyl)-2,3-dihydro-1H-pyrrolo[1,2,3-de]quinoxalin-5-yl)-7-methoxy-1H-benzo[d]imidazol-5-yl)methanone]	0.1 to 0.5 µM
